In one assay the test system is OCI-AML-2. The assay is described as follows: Cell proliferation assay (MTS). The class given is cell-based, human.
For a further assay, the system named is LAL-CUN-2. Kind of assay: Cell proliferation assay (MTS). As to conditions: Homo sapiens, 48 h. The class given is cell-based.
For another assay, the system named is MV4-11. The assay is described as follows: Cell proliferation assay (MTS). As to conditions: Homo sapiens. The class given is cell-based.
The next assay deals with OCI-Ly3. Kind of assay: Cell proliferation assay (MTS). The class given is cell-based. To be noted: Homo sapiens.
Another assay deals with CEMO-1. Kind of assay: Cell proliferation assay (MTS). The class given is cell-based, human. To be noted: 48 h.
The next assay deals with T1, G9a (Homo sapiens, UniProt Q96KQ7).
T1 sequence (Q96KQ7 1-1210): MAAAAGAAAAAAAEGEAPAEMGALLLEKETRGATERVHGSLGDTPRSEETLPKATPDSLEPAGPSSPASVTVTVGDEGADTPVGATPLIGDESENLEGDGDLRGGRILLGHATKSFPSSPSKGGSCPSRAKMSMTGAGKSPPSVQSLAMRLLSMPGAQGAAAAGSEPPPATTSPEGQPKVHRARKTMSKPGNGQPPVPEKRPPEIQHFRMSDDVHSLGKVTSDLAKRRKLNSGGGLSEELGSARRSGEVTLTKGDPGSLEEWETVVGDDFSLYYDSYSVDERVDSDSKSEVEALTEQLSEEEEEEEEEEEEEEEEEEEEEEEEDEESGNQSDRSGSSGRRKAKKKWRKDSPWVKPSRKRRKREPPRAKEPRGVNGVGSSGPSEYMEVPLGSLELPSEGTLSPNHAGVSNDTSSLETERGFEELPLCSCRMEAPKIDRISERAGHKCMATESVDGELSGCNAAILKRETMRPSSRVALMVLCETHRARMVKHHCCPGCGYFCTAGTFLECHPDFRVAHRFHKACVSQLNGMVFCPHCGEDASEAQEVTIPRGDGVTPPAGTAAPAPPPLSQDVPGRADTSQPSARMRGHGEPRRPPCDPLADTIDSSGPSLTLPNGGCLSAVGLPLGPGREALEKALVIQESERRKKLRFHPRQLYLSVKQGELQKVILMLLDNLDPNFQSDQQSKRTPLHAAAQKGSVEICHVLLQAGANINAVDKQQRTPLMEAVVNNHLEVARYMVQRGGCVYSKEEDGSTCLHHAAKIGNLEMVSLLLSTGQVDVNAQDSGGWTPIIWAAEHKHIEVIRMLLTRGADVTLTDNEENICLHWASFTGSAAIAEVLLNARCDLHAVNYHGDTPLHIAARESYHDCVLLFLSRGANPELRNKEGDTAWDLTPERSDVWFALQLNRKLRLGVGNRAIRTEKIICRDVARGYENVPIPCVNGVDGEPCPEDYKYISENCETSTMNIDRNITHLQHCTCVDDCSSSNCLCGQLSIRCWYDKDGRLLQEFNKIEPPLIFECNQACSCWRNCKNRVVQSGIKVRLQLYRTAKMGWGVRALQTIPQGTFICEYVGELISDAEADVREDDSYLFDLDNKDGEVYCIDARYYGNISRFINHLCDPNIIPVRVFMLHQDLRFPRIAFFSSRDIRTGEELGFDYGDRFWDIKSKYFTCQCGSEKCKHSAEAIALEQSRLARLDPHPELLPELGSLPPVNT
Kind of assay: G9a enzyme activity assay (TR-FRET). As to conditions: for IC50: TR-FRET, internally determined. The class given is biochemical. For orientation: In TR-FRET formats the signal depends on donor and acceptor labels being close together.

A further assay has as its system OCI-Ly10. The assay is described as follows: Cell proliferation assay (MTS). The class given is cell-based, human. To be noted: Homo sapiens, OCI-Ly10, 48 h.
For another assay, the target named is T2, human DNMT1 enzyme (Homo sapiens, UniProt P26358).
T2 construct: purchased
The assay is described as follows: DNMT1 enzyme activity assay (TR-FRET). The class given is biochemical. To be noted: internally determined.

Assay [1] deals with T3, DNMT1 catalytic domain (501-1632) (Homo sapiens, UniProt P26358).
T3 construct: Flag (N); purchased
Kind of assay: SPR on immobilised DNMT1. The class given is binding. The text has this: We have indeed tried to measure the affinity of the reported compounds for DNMT1 using SPR. For that, we attempted SPR experiments using the two different DNMT1 protein constructs we can purchase: A full length DNMT1 with an N-terminal GST fusion, and a shorter construct containing the […]
First, we immobilized GST-tagged full length DNMT1 to a chip containing anti-GST antibody, but the amount immobilized was only 8% of the GST Ab chip capacity, and insufficient to detect binding of the ca. 500 Da compounds, presumably due to steric impediments resulting from the large size (dimer of 209 kDa monomers) of the GST-DNMT1 fusion protein. The theoretical SPR signal expected for the compounds binding with a 1:1 stoichiometry to the amount of protein immobilized (2300 RU) is only 5 response units (RU), with the precision of our BiacoreX100 SPR instrument typically being 1- […]
reference channels at 5 µM, indicating unspecific binding to the chip surface/Ab/GST, and very likely masking their possible direct binding to DNMT1. Compound injections at 200 µM […]
differential increase in the DNMT1 channel that indicates non-reversible binding with a high stoichiometry (responses of 81 and 65 RU, respectively; with 5 RU expected for a 1:1 binding), likely resulting from aggregation of the compounds at 200 µM concentration in the DNMT1 channel. […]
properly measured. […]

Where [2] appears, read: Homo sapiens, OCI-AML2, AML, 48 h, read-out: GI50.
Setting [3] is: MV4-11, AML, 48 h, read-out: GI50.
[4] abbreviates: OCI-Ly3, ABC-DLBCL, 48 h, read-out: GI50.
[5] abbreviates: Homo sapiens, ALL, read-out: GI50.
The mark [6] stands for this setting: Homo sapiens, CEMO-1, 48 h, as used in apoptosis assay, read-out: GI50.
Setting [7] is: ABC-DLBCL, 48 h, read-out: GI50.

Read-outs that look alike come from different tables or passages of the source.

T2 sequence (P26358 whole entry): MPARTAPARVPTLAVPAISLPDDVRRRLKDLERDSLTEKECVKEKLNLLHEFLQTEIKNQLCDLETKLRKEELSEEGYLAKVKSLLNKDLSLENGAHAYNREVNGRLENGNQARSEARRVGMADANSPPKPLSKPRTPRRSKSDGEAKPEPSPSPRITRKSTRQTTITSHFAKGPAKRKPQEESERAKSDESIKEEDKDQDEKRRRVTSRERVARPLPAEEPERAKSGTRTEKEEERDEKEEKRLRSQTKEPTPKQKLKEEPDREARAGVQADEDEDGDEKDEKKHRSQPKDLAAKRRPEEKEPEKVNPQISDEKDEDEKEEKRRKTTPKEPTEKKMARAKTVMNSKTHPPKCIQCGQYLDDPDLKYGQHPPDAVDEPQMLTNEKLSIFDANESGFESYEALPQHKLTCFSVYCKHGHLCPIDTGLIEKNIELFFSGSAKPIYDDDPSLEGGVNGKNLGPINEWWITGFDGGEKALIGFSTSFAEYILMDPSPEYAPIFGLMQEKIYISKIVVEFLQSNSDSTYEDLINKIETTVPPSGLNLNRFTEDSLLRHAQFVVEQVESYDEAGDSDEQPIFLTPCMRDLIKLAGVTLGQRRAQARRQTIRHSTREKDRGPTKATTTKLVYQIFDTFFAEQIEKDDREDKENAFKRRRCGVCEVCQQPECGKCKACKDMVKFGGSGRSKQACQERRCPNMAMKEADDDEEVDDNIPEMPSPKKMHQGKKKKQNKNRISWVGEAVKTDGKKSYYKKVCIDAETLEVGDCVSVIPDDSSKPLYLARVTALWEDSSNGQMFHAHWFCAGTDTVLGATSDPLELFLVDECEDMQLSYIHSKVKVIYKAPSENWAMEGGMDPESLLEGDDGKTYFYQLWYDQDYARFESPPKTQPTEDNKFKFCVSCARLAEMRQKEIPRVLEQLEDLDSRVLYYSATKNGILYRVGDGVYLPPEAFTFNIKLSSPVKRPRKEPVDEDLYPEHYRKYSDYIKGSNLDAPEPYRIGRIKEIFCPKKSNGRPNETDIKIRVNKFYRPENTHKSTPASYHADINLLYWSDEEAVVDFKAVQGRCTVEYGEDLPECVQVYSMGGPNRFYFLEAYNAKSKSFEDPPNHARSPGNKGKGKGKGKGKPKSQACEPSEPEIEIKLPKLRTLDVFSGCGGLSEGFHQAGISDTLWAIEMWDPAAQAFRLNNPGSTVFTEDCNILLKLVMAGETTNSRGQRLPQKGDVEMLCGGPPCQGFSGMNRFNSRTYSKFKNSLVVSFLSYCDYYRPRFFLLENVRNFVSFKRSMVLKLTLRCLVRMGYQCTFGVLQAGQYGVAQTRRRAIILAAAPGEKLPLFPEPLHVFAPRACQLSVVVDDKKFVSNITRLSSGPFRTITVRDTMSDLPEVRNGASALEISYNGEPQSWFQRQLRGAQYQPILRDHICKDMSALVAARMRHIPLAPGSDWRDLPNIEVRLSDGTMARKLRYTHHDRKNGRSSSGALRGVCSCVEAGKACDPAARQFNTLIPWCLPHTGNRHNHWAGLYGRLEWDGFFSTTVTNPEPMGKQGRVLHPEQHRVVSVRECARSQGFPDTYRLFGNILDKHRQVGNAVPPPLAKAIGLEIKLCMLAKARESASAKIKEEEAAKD
T3 sequence (P26358 485-1616): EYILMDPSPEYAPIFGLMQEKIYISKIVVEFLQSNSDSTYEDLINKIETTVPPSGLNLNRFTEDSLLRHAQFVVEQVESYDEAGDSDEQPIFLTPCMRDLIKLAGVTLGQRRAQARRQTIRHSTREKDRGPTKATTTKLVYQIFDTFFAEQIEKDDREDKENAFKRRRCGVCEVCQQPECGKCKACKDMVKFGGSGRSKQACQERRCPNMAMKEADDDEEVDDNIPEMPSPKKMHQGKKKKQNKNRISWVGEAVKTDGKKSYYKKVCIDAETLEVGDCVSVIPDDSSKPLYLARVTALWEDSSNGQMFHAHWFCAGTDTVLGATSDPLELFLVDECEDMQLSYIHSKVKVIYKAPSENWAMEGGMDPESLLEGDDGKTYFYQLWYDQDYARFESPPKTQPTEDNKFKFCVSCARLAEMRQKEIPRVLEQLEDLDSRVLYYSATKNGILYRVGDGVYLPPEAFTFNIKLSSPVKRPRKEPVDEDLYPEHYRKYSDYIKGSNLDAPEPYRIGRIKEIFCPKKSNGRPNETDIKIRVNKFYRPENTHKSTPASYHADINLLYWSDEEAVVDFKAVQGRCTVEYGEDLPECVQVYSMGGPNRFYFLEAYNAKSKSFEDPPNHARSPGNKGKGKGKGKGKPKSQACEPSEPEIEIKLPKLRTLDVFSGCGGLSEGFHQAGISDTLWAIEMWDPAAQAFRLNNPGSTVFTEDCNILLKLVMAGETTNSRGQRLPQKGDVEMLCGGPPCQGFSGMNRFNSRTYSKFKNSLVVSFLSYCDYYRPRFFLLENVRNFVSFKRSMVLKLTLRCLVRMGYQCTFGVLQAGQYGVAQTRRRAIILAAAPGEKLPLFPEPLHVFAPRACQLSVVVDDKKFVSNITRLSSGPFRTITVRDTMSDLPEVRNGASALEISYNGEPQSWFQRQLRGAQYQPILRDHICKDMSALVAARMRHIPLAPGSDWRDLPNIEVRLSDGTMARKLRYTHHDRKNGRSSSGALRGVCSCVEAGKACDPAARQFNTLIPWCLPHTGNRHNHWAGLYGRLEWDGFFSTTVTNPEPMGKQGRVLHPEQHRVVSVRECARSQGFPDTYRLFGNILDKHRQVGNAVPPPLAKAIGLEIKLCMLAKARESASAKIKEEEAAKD

For the compound `COc1cc2c(cc1OCCCN1CCCC1)N=C(N)C21CCC1` [A-366], the GI50 (in general, the concentration giving 50% growth inhibition) in the assay with OCI-AML-2 (OCI-AML-2, combination study set-up, read-out: GI50) was more than 50 µM.
Take `Nc1ncn([C@@H]2O[C@H](CO)[C@@H](O)[C@H]2O)c(=O)n1` [Azacitidine, azacitidine]: the GI50 is 21.2 µM in the assay on LAL-CUN-2 (ALL, read-out: GI50); more than 10 µM in the assay with OCI-AML-2 (setting [2]); 5.56 µM with MV4-11 (setting [3]); 1.93 µM in the assay on OCI-Ly3 (setting [4]); 3.96 µM with CEMO-1 (setting [5]); 7.7 µM in the assay on CEMO-1 (setting [6]). Further, the 50% growth inhibitory concentration (GI50) with OCI-Ly10 (setting [7]) turned out to be 2.6 µM. The half-maximal inhibitory concentration (IC50) (usually the concentration at which inhibition is half-maximal) against G9a is more than 10 µM.
Turning to `COc1cc2nc(N3CCCN(C)CC3)nc(NC3CCN(Cc4ccccc4)CC3)c2cc1OC` [BIX-01294], the GI50 in the assay with LAL-CUN-2 (ALL, read-out: GI50) is 5.94 µM; with OCI-AML-2 (setting [2]), 6.32 µM; in the assay on MV4-11 (setting [3]), 11.9 µM; in the assay on OCI-Ly3 (setting [4]), more than 4 µM; in the assay with CEMO-1 (setting [5]), 2.91 µM; in the assay with CEMO-1 (setting [6]) it was 2.9 µM. In the assay with OCI-Ly10 (setting [7]), the concentration for 50% growth inhibition (GI50) was more than 4 µM. This compound displayed an IC50 at human DNMT1 enzyme of more than 10 µM.
`COc1cc2c(OC3CCN(C)CC3)cc(-c3ccc(C)o3)nc2cc1OCCCN1CCCC1` [CM-1021, 6-methoxy-2-(5-methyl-2-furyl)-4-[(1-methyl-4-piperidyl)oxy]-7-(3-pyrrolidin-1-ylpropoxy)quinoline]: the “reduction of primary activity (4-oxyquinoline vs 4-aminoquinoline)” value on G9a (secondary amine replaced by ether) is given as “more than 2.5 log units”.
With `Nc1ncn([C@H]2C[C@H](O)[C@@H](CO)O2)c(=O)n1` [Decitabine, decitabine], the GI50 is more than 22.4 µM with LAL-CUN-2; more than 10 µM in the assay on OCI-AML-2 (Homo sapiens, OCI-AML2, 48 h); more than 50 µM in the assay on MV4-11 (MV4-11, 48 h); more than 4 µM in the assay on OCI-Ly3 (OCI-Ly3, 48 h); 0.49 µM in the assay on CEMO-1 (ALL); 0.506 µM in the assay on CEMO-1 (Homo sapiens, ALL). The compound further returned a 50% growth inhibitory concentration (GI50) with OCI-Ly10 of more than 4 µM. This compound came in with an IC50 on G9a of more than 10 µM.
As for `C[S+](CC[C@H](N)C(=O)[O-])C[C@H]1O[C@@H](n2cnc3c(N)ncnc32)[C@H](O)[C@@H]1O` (stereo partly drawn) [SAM, S-adenosyl-L-methionine], the dissociation constant Kd (as a rule, the equilibrium constant for the complex coming apart) in assay [1] fell in the range of 15 to 20 µM.
`COc1cc2c(NC3CCN(C(C)C)CC3)nc(C3CCCCC3)nc2cc1OCCCN1CCCC1` [UNC-0638]: the concentration for 50% growth inhibition (GI50) in the assay with LAL-CUN-2 (ALL, read-out: GI50) is 5.18 µM; with OCI-AML-2 (setting [2]) it was 7.33 µM; in the assay on MV4-11 (setting [3]) it was 12 µM; in the assay on OCI-Ly3 (setting [4]) it was more than 4 µM; with CEMO-1 (setting [5]), 4.73 µM; in the assay on CEMO-1 (setting [6]) it was 4.7 µM. Also, the concentration for 50% growth inhibition (GI50) in the assay on OCI-Ly10 (setting [7]) was more than 4 µM.

(Values after paper PMC5458547, “Discovery of first-in-class reversible dual small molecule inhibitors against G9a and DNMTs in hematological malignancies” (Nature Communications, 2017).)
